Tested on: CDC7, LMNB2, MAD2L1 and CUL5
Test: Western blot analysis
Format: cell-based, human
Details: HCT116DICER^ex5 cells, 10 nM, data not shown
Protocol: HCT116DICER^ex5 cells were transfected with 10 nM siRNA against luciferase or 10 nM miR-192 or 10 nM miR-192 mutant, and lysates were prepared at 28 hours or 48 hours post-transfection. For immunoblotting, 30 μg of whole cell lysate extracted in a modified RIPA buffer (150 mM NaCl, 50 mM Tris pH 7.4, 1 mM EDTA, 1% NP-40, 0.1% SDS) was used per sample. CDC7, LMNB2, MAD2L1 and CUL5 were detected by Western blot using anti-CDC7 (sc-56275, Santa Cruz Biotechnology Inc.), anti-LMNB2 (MAB3536, Millipore), anti-MAD2L1 (ab55452, Abcam) and anti-CUL5 (Invitrogen) antibodies, and protein levels were compared to the level of β-actin expression as detected by an anti-β-actin antibody (Abcam).

## miR-192: Synthetic duplex mimetic of miR-192, guide CUGACCUAUGAAUUGACAGCC (SEQ ID NO:1), passenger SEQ ID NO:7 (sense CUGUCAAUUCAUCGGUCUGAU; listed as RNA, chemistry not given here; listed as Homo sapiens)
  protein level: downregulated

Reference: US20110118337A1, “Method of Using Compositions Comprising MIR-192 and/or MIR-215 for the Treatment of Cancer” (Merck Sharp & Dohme Corp., priority 2008, published 2011)
